Source: patent US6875843B2, “Prevention of diabetes and prolongation of the honeymoon phase of diabetes by administration of GnRH antagonists” (Children's Mercy Hospital, priority 2001, dated 2005)

Key:
Assay type in all cases: in vivo, mouse
NOD mice [1] = assay: Serum total immunoglobulin G in gonadectomized NOD mice (single radial immunodiffusion); conditions: 100 μg s.c. six times weekly, 8 weeks of treatment, vs vehicle (FIG. 3)
Source text: (§1) Mice. The well-characterized NOD mice were used throughout the study. Male and female mice were purchased from the Jackson Laboratory (Bar Harbor, Me.). These mice are art-recognized animal models used in diabetes research. (Makino et al., (1980) Breeding of a Non-obese Diabetic Strain of Mice. Exp Anim, 29, 1-13; Miyazaki, A. T., et al, (1985) Predominance of T Lymphocytes in Pancreatic Islets and Spleen in Prediabetic Non-Obese Diabetic (Nod) Mice: a Longitudinal Study. Clin Exp immunol, 60, 622-630)
Experimental Design. Both intact and gonadectomized mice (GDX) were used. […] To compare the effects of GnRH agonists and antagonists, gonadectomized animals were randomized at 14 to 18 days of age and begun immediately in one of the following main treatment groups: GnRH agonist; Antide; vehicle. One group of gonadectomized males was treated with Nal-Glu, as an additional control. […]
Clinical tests. Total immunoglobulin G concentrations were measured by single radial immunodiffusion assay using immunodiffusion plates containing monospecific antiserum for IgG (ICN Biomedicals, Inc., Costa Mesa, Calif. ). […] Glycosuria was scored by comparison to reference standards on a scale of 0 to 4 as follows: negative=0; 30 mg/dL=1; 100 mg/dL=2; 300 mg/dL=3;>1000 mg/dL=4.
Statistics. […] Percentages of mice remaining diabetes-free was assessed by Mantel-Haenszel methodology. […]

NOD mice [2] = assay: Incidence and onset of diabetes in gonadectomized male NOD mice; conditions: for Timing of onset of diabetes: gonadectomized NOD mice; for Timing of onset of diabetes / Incidence of diabetes: 100 μg s.c. six times weekly (FIG. 4)
Source text: as §1
Experimental Design. Both intact and gonadectomized mice (GDX) were used. […] To compare the effects of GnRH agonists and antagonists, gonadectomized animals were randomized at 14 to 18 days of age and begun immediately in one of the following main treatment groups: GnRH agonist; Antide; vehicle. One group of gonadectomized males was treated with Nal-Glu, as an additional control.
(§2) Gonadectomy. Males were gonadectomized via a single scrotal incision under pentobarbital anesthesia.
(§3) Injections. GnRH (native decapeptide) was purchased from Bachem (Bubendorf, Switzerland). GnRH antagonist Antide (Acetyl-β-[2-Naphthyl]-D-Ala-D-p-Chloro-Phe-β-[3-Pyridyl]-D-Ala-Ser-Nε-[Nicotinoyl]-Lys-Nε-[Nicotinoyl]-D-Lys-Leu-Nε-[Isopropyl]-Lys-Pro-D-Ala-NH2) was supplied by Contraceptive Development Branch (NICHHD) of the National Institutes of Health and Ares-Serono (Randolph, Mass.). A second GnRH antagonist, Nal-Glu (acetyl-D2Nal1, D4CIPhe2, D3Pal3, Arg5, Dglu6 (AA), DAla10) was supplied by NICHHD and was used on a subset of mice. All references to GnRH agonist refer to the native decapeptide. Animals were injected subcutaneously in the nape of the neck six times weekly, in the a.m., with 100 μg of GnRH or GnRH antagonist in 100 μl of vehicle consisting of 50% propylene glycol and 50% double distilled water.
Clinical tests. Total immunoglobulin G concentrations were measured by single radial immunodiffusion assay using immunodiffusion plates containing monospecific antiserum for IgG (ICN Biomedicals, Inc., Costa Mesa, Calif. ). Serum glucoses were checked weekly using a One Touch Fast Take meter (Lifescan, Milpitas, Calif.) Urine was tested for glucose by urinalysis reagent strips (Miles, Inc., Elkhart Ind.). Glycosuria was scored by comparison to reference standards on a scale of 0 to 4 as follows: negative=0; 30 mg/dL=1; 100 mg/dL=2; 300 mg/dL=3;>1000 mg/dL=4.
Statistics. Serum immunoglobulin measurements were compared by two-tailed Student's paired t-tests. Percentages of mice remaining diabetes-free was assessed by Mantel-Haenszel methodology. (Mantel, N. (1966) Evaluation of Survival Data and Two New Rank Order Statistics Arising in its Consideration. Cancer Chemother Rep, 50, 163-70)

NOD mice [3] = assay: Lymphocytic infiltration of islet cells, pancreatic histology in gonadectomized NOD mice; conditions: 100 μg s.c. six times weekly, 3, 5, 7, 9 and 11 weeks, vs vehicle (FIG. 5)
Method: In this example, gonadectomized NOD mice were treated with either the GnRH antagonist Antide or the vehicle (50% propylene glycol and 50% double distilled water) to determine differences in the rate of lymphocytic infiltration of islet cells.
Mice. The well-characterized NOD mice were used throughout the study. Male and female mice were purchased from the Jackson Laboratory (Bar Harbor, Me.). Again, these mice are art-recognized animal models used in diabetes research.
as §2
Injections. The mice were injected subcutaneously in the nape of the neck six times weekly, in the a.m., with 100 μg of the GnRH antagonist in 100 μl of vehicle consisting of 50% propylene glycol and 50% double distilled water.
Pancreatic Histology. Three mice per treatment group were euthanized at 3, 5, 7, 9, and 11 weeks. Pancreatic histologic sections were stained by hemotoxillin and eosin. Ten tissue sections per treatment group were examined. All […] in each tissue section were scored with regard to the presence or absence of lymphocytic infiltrates.

NOD mice [4] = assay: Serum prolactin by radioimmunoassay in NOD mice; conditions: 100 μg s.c. six times weekly
Source text: as §3
Sera. Sera were collected from blood obtained every six weeks by retroorbital puncture after light isofluorane anesthesia.
Hormone measurements. Serum testosterone concentrations were measured by RIA using a commercial kit (Coat-A-Count, Diagnostic Products Corporation, Los Angeles, Calif.). Serum LH and prolactin were measured by radioimmunoassay (RIA) using previously described methods. […]

Acetyl-β-[2-Naphthyl]-D-Ala-D-p-Chloro-Phe-β-[3-Pyridyl]-D-Ala-Ser-Nε-[Nicotinoyl]-Lys-Nε-[Nicotinoyl]-D-Lys-Leu-Nε-[Isopropyl]-Lys-Pro-D-Ala-NH2 [Antide]
Serum IgG concentrations (NOD mice [1]): reduced serum IgG concentrations to levels seen in sham operated mice | Timing of onset of diabetes (NOD mice [2]): delayed onset of diabetes | Incidence of diabetes (NOD mice [2]; gonadectomized male NOD mice): significantly decreased | Percentage of treated mice diabetic (NOD mice [2]; gonadectomized male NOD mice, 100 μg s.c. six times weekly, at 60 weeks of age, compared to vehicle (FIG. 4)): 0% | Lymphocytic infiltration of islets (percentages of islets infiltrated) (NOD mice [3]): statistically significant reduction in lymphocytic infiltration | Serum prolactin levels (NOD mice [4]): neither agonist nor antagonist treatment altered serum prolactin levels

GnRH agonist: GnRH native decapeptide purchased from Bachem; all references to GnRH agonist refer to the native decapeptide (QHWSYGLRPG; Gonadoliberin-1; UniProt P01148 24-33, looked up)
Serum IgG concentrations (NOD mice [1]): further increased IgG levels compared to vehicle | Timing of onset of diabetes (NOD mice [2]): accelerated | Incidence of diabetes (NOD mice [2]; gonadectomized male NOD mice): significantly increased | Serum prolactin levels (NOD mice [4]): neither agonist nor antagonist treatment altered serum prolactin levels
